Measurements: US7148194B2, “Method to increase fibronectin” (Kimberly-Clark Worldwide, Inc., priority 2002, dated 2006)

How the values were obtained:
[1] = tested on: normal human dermal fibroblasts; test: fibroblast proliferation, Cell Titer 96, OD 490 nm; assay type: cell-based; set-up: fibroblast cell density versus control: dose or concentration left out as unconfirmed; details: 28 hours
Protocol: A human skin fibroblast cell line (Clonetics, Walkersville, Md., normal human dermal fibroblasts, neonatal, catalog number CC-2509) was tested to ascertain whether exposure to a peptide would stimulate cellular proliferation. […] Plates were incubated for 24 hours at 37° C. in a humidified 5% CO2 atmosphere. After incubation, the medium was aspirated and the wells were rinsed twice with 100 μl of serum-free DMEM. […] In addition, 100 μl of vehicle (serum-free DMEM) was added to 10 wells as control. All wells were incubated for 28 hours at 37° C. in a humidified, 5% CO2 atmosphere. After incubation, 20 μl of Cell Titer 96 Aqueous One Solution was added to all wells. The plates were swirled gently and placed back in the incubator for 45 minutes and spectrophotometric absorbance was read at 490 nm. Results were analyzed statistically using one-way ANOVA.

[2] = tested on: normal human epidermal keratinocytes; test: keratinocyte proliferation, Cell Titer 96, OD 490 nm; assay type: cell-based; details: 48 hours
Protocol: The proliferative response of these human skin keratinocytes to the 19mer peptide was measured in a 96-well assay system using keratinocyte basal medium (KBM, Clonetics, catalog number CC-3103) as a control. […] The plates were incubated for 24 hours at 37° C. in a humidified 5% CO2 atmosphere. […] In addition, 100 μl of vehicle KBM was added to 10 wells as control. The plate was incubated for 48 hours at 37° C. in a humidified, 5% CO2 atmosphere. After incubation, 20 μl of Cell Titer 96 Aqueous One Solution was added to all wells. The plate was swirled gently and placed back in the incubator for 3 hours. The spectrophotometric absorbance of each well was read at 490 nm. Results were analyzed statistically using one-way ANOVA.

MMP-2 = target: T1, MMP-2 (Homo sapiens, UniProt P08253); test: isothermal titration calorimetry with MMP-2; assay type: binding; details: ITC, 10 mM NaCl at 25° C.
T1 sequence (P08253 110-660): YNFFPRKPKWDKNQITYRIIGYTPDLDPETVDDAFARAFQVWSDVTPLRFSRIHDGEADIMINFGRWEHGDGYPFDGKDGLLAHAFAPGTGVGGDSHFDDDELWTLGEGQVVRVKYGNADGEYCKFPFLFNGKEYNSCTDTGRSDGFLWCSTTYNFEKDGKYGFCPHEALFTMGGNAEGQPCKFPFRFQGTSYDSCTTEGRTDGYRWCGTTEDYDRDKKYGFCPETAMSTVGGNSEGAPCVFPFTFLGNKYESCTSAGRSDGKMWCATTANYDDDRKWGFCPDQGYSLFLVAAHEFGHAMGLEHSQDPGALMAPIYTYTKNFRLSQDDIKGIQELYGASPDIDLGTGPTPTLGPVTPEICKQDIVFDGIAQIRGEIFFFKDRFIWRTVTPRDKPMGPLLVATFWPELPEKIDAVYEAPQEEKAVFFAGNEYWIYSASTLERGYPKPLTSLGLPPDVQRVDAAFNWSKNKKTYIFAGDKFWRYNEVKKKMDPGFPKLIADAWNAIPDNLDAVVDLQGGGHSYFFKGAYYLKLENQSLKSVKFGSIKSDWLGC

[3] = tested on: fibronectin in human skin fibroblast cell line; test: fibronectin in human skin fibroblasts, EIA; assay type: cell-based; details: for Mean (fibronectin EIA, absorbance at 450 nm) / Median (fibronectin EIA, absorbance at 450 nm): 48 hours, n=2
Protocol: The fibroblast cells were first grown in a 96-well assay system using DMEM with 10% fetal bovine serum (FBS), both purchased from Sigma Chemical Co, St. Louis, Mo. […] Serum-free DMEM was used as a control. Cells were seeded into a 96 well plate at a concentration of 9×10^3 cells in 100 μl of DMEM containing 10% fetal bovine serum (FBS, Sigma Chemical Co., St. Louis, Mo.). The plate was incubated for 48 hours at 37° C. in a humidified 5% CO2 atmosphere. After incubation, the medium was aspirated and the wells were rinsed twice with 100 μl of serum-free DMEM. […] In addition, 100 μl of vehicle (serum-free DMEM) was added to 2 wells as a control. The plate was incubated for 48 hours at 37° C. in a humidified, 5% CO2 atmosphere.
The assay was performed using the recommended 100 μl of supernatant from each well of the 96-well plate. Standard buffer and stop solutions were freshly prepared before running the assay. A pre-antibody coated 96 well plate (provided with the kit) was used to transfer the test samples and the control. The plate was mixed, sealed, and incubated for 1 hour at 37° C. All the wells were washed three times (300ul) with washing buffer after removing sample solutions. 100ul of antibody-peroxidase conjugate solution was added into the wells. The plate was mixed, sealed, and incubated for one hour at 37° C. Solutions were removed and the wells were washed 3 times with washing buffer. All the wells were completely emptied at the end of washing from any liquid. 100 μl of substrate solution (hydrogen peroxide and tetramethylbenzidine in a buffered solution) was added to each well, and the plate was incubated at room temperature for 15 minutes. 100 μl of stop solution (freshly prepared 1N H2SO4) was added to each well in the same order as substrate. The plate was gently mixed and absorbance was read at 450 nm. Statistical analyses of data were performed using a one-way ANOVA.

MMP-9 = target: T2, MMP-9 (Homo sapiens, UniProt P14780); test: enzymatic hydrolysis of fluoresceinated collagen by MMP-9; assay type: biochemical; details: extended time assay, FIG. 8
T2 construct: Active MMP-9 enzyme was purchased from Calbiochem; purchased Calbiochem
Protocol: Two enzymatic assays were performed. The first assay measured the enzymatic hydrolysis of fluoresceinated collagen by MMP-9 as a function of time. […] The protein mixture was added to the collagen substrate, and was quickly mixed. Fluorescence emission intensity at 520 nm was measured as a function of time (excitation wavelength 495 nm) in a Shimadzu RF5301 fluorometer (Lakowicz, 1983). The fluorescein release assay was used to determine the inhibitory constant (Ki) of the peptide inhibitor ([I]) according to Segel (1993) via the use of Dixon plots (1/v vs. [I]), such that: slope=Km/(Vmax Ki [S]) (1) where Km is the Michaelis constant, Vmax is the reaction maximum velocity, and [S] is the substrate concentration.

[4] = MMP-2, 20 mM cacodylate (pH 6.8)

T2 sequence (P14780 107-707 limits assumed): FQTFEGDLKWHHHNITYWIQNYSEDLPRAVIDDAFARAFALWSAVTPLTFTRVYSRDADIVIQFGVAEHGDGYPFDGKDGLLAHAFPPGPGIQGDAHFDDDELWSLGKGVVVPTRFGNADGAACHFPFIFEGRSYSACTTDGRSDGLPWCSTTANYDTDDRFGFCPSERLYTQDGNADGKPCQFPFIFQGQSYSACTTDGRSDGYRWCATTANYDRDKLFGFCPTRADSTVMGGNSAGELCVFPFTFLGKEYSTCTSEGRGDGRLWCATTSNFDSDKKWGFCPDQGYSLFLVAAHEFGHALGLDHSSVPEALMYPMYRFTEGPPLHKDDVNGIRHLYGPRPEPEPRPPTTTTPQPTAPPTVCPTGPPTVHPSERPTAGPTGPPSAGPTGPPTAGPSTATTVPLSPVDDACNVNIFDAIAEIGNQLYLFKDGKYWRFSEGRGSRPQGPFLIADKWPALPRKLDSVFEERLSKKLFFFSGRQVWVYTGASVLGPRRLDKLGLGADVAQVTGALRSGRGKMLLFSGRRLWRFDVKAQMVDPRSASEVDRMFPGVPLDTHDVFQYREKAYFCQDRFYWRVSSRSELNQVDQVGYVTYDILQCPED

Structure (SMILES): CC(C)[C@H](NC(=O)[C@H](CC(=O)O)NC(=O)[C@@H]1CCCN1C(=O)[C@H](CC(N)=O)NC(=O)CNC(=O)[C@H](CS)NC(=O)[C@H](CCCNC(=N)N)NC(=O)[C@@H]1CCCN1)C(=O)N[C@@H](C)C(=O)N[C@@H](CC(N)=O)C(=O)N[C@@H](Cc1ccc(O)cc1)C(=O)N[C@@H](CC(N)=O)C(=O)N[C@@H](Cc1ccccc1)C(=O)N[C@@H](Cc1ccccc1)C(=O)N1CCC[C@H]1C(=O)N[C@@H](CCCNC(=N)N)C(=O)N[C@@H](CCCCN)C(=O)N1CCC[C@H]1C(=O)N[C@@H](CCCCN)C(=O)O [Peptide 19-mer]
- fibroblast cell growth versus control ([1]; 1×10^−4 M, P<0.001): even greater cell growth
- fibroblast cell proliferation versus control ([1]; 1×10^−6 M, P<0.05): a small amount of cell proliferation
- fibroblast cell density versus control ([1]; (19mer5), P<0.01): significantly greater cell density
- keratinocyte cell growth versus control ([2]; 1×10^−4 M, P<0.001): even greater cell growth
- keratinocyte cell density versus control ([2]; 1×10^−5 M, P<0.01): significantly greater cell density
- keratinocyte cell proliferation versus control ([2]; 1×10^−6 M, P>0.05): only a small amount of cell proliferation
- Stoichiometry (MMP-2; MMP-2 20 μM, 19-mer 1 mM, 20 mM cacodylate (pH 6.8)): 0.99 ± 0.03
- ΔH (MMP-2; [4]): -15.4 ± 2.05 kcal/mol
- ΔS (MMP-2; [4]): −21.1 ± 1.8 cal mol^−1 K^−1
- Mean (fibronectin EIA, absorbance at 450 nm) ([3]; 1×10^−4 M): 0.4045
- Median (fibronectin EIA, absorbance at 450 nm) ([3]; 1×10^−4 M): 0.4045
- Mean (fibronectin EIA, absorbance at 450 nm) ([3]; 1×10^−5 M): 0.2400
- Median (fibronectin EIA, absorbance at 450 nm) ([3]; 1×10^−5 M): 0.2400
- Mean (fibronectin EIA, absorbance at 450 nm) ([3]; 1×10^−6 M): 0.1895
- Median (fibronectin EIA, absorbance at 450 nm) ([3]; 1×10^−6 M): 0.1895
- effect on fibronectin stimulation compared with control and 10^−6 M ([3]; 10^−4 M): more than doubled
- amount of fibronectin versus control ([3]; all concentrations tested (1×10^−4, 1×10^−5, 1×10^−6 M)): increased the amount of fibronectin present
- time over which MMP-9 catalyzed hydrolysis of collagen is effectively inhibited (MMP-9): > 1000 min
